In patent US4097591A, “N^2 -arylsulfonyl-L-argininamides and the pharmaceutically acceptable salts thereof” (Mitsubishi Chemical Industries Limited, priority 1977, dated 1978):

Each molecule was assayed against T1, thrombin (Bos taurus, UniProt P00735) (assay: fibrinogen coagulation time (prolongation by a factor of two)). Settings: pH 7.4, TABLE 2 (Sample Nos. 1-14, own numbering); bovine fibrinogen, thrombin 5 units/ml, pH 7.4, 25° C; read-out: Concentration required to prolong the coagulation time by a factor of two.
T1 construct: clotting of bovine fibrinogen
Type: biochemical
Method: The measurement of the fibrinogen coagulation time was conducted as follows:
Immediately after mixing, the reaction mixture was transferred from the ice bath to a bath maintained at 25° C. Coagulation times were taken as the period between the time of transference to the 25° C bath and the time of the first appearance of fibrin threads. […] The term "concentration required to prolong the coagulation time by a factor of two" is the concentration of an active ingredient required to prolong the normal coagulation time 50-55 seconds to 100-110 seconds.

| IC (2-fold clotting time) [µM] | Structure (SMILES) |
| --- | --- |
| 5 | CCCCN(CC(=O)O)C(=O)[C@H](CCCNC(=N)N)NS(=O)(=O)c1ccc(OC)c(C2CCCCC2)c1 [compound 3, N^2-(3-cyclohexyl-4-methoxyphenylsulfonyl)-L-arginyl-N-butylglycine] |
| 38 | CCCCN(CC(=O)O)C(=O)[C@H](CCCNC(=N)N)NS(=O)(=O)c1ccc(OC)c(Cc2ccccc2)c1 [compound 2] |

Same assay, conditions: pH 7.4, first table (Sample Nos. 1-235); bovine fibrinogen, thrombin 5 units/ml, pH 7.4, 25° C; read-out: Concentration required to prolong the coagulation time by a factor of two

| IC (2-fold clotting time) [µM] | Structure (SMILES) |
| --- | --- |
| 2.5 | COc1cc2ccc(S(=O)(=O)N[C@@H](CCCNC(=N)N)C(=O)N(CC(=O)O)Cc3ccccc3)cc2cc1OC [compound 50] |
| 2.5 | COCCN(CCC(=O)O)C(=O)[C@H](CCCNC(=N)N)NS(=O)(=O)c1ccc2cc(OC)c(OC)cc2c1 [compound 15] |
| 2 | COc1ccc2ccc(S(=O)(=O)N[C@@H](CCCNC(=N)N)C(=O)N3CCOCC3C(=O)O)cc2c1 (stereo partly drawn) [compound 189] |
| 0.1 | Cc1ccc2ccc(S(=O)(=O)N[C@@H](CCCNC(=N)N)C(=O)N3CCC(C(C)C)CC3C(=O)O)cc2c1 (stereo partly drawn) [compound 175] |
